According to patent US10550105B2 (Ribon Therapeutics Inc., priority 2018, dated 2020):

The molecules below were run against PARP7 (Homo sapiens (Human), UniProt Q7Z3E1) (assay: Enzymatic assay for inhibition of PARP7: TR-FRET displacement of biotinylated Probe A from the TIPARP active site). Details: Table A-1.
PARP7, sequence (Q7Z3E1 whole entry): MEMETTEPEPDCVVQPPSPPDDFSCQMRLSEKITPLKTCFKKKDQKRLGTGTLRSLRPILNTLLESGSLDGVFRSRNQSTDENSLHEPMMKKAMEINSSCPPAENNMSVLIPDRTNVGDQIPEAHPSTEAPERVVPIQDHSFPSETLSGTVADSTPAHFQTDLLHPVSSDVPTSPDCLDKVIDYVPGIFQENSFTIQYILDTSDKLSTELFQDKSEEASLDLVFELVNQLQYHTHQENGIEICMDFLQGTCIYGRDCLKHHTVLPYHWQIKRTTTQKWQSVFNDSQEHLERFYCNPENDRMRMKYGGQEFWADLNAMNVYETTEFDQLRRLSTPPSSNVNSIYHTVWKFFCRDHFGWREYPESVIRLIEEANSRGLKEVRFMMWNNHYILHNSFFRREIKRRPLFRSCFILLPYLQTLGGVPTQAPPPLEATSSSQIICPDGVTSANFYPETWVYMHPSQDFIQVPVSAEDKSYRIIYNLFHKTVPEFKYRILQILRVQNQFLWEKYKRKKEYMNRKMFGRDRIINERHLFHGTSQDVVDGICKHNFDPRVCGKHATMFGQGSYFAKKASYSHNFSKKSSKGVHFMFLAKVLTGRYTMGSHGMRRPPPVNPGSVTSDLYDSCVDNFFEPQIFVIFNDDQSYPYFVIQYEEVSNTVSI
Type: binding
Method in brief: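 Titrated compounds compete with the biotinylated probe; after an additional 30 min incubation at 25° C, time-delayed fluorescence (90 μs) is measured. Inhibition curves use a Hill coefficient that normally floats but may be held at 1.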
With `C[C@@H](CN(C)CCC(=O)N1CCN(c2ncc(C(F)(F)F)cn2)CC1)Oc1cn[nH]c(=O)c1C(F)(F)F` [Example 616, (S)-5-((1-(Methyl(3-oxo-3-(4-(5-(trifluoromethyl)pyrimidin-2-yl)piperazin-1-yl)propyl)amino)propan-2-yl)oxy)-4-(trifluoromethyl)pyridazin-3(2H)-one] the IC50 was < 0.1 µM.
Molecule `N#Cc1ccc(N2CC3(CN(C(=O)CCOC[C@@H]4CCCN4c4cn[nH]c(=O)c4C(F)(F)F)C3)C2)nc1` [Example 108, 6-[6-(3-[[(2S)-1-[6-oxo-5-(trifluoromethyl)-1,6-dihydropyridazin-4-yl]pyrrolidin-2-yl]methoxy]propanoyl)-2,6-diazaspiro [3.3]heptan-2-yl]pyridine-3-carbonitrile] has an IC50 of 0.1 to 1 µM.
With `CN(CCC(=O)N1CCN(c2ccc(C#N)cn2)CC1)C[C@@H]1c2ccccc2CN1c1cn[nH]c(=O)c1Cl` [Example 429, (S)-6-(4-(3-(((2-(5-Chloro-6-oxo-1,6-dihydropyridazin-4-yl)isoindolin-1-yl)methyl)(methyl)amino)propanoyl)piperazin-1-yl)nicotinonitrile] the IC50 was < 0.1 µM.
`COc1nccc2c1CN(c1cn[nH]c(=O)c1C(F)(F)F)C2` [Example 346, 5-(4-Methoxy-1,3-dihydro-2H-pyrrolo[3,4-c]pyridin-2-yl)-4-(trifluoromethyl)pyridazin-3(2H)-one] was tested, and the IC50 was < 0.1 µM.
`CC(=O)NCCOc1cccc2c1CN(c1cn[nH]c(=O)c1Cl)C2` [Example 241, N-(2-((2-(5-Chloro-6-oxo-1,6-dihydropyridazin-4-yl)isoindolin-4-yl)oxy)ethyl)acetamide] showed an IC50 of 0.1 to 1 µM.
`N#Cc1ccc(N2CCN(CCC(=O)NC[C@@H]3CCCN3c3cn[nH]c(=O)c3C(F)(F)F)CC2)nc1` [Example 134, (S)-3-(4-(5-cyanopyridin-2-yl)piperazin-1-yl)-N-((1-(6-oxo-5-(trifluoromethyl)-1,6-dihydropyridazin-4-yl)pyrrolidin-2-yl)methyl)propanamide] was tested, and the IC50 was ≥ 1 µM.
For `N#CCCC(=O)N1CCN(C(=O)CCOC[C@@H]2c3ccccc3CN2c2cn[nH]c(=O)c2C(F)(F)F)CC1` [Example 423, (S)-4-Oxo-4-(4-(3-((2-(6-oxo-5-(trifluoromethyl)-1,6-dihydropyridazin-4-yl)isoindolin-1-yl)methoxy)propanoyl)piperazin-1-yl)butanenitrile], the IC50 was < 0.1 µM.
`O=c1[nH]ncc(N2Cc3cccc(NC4CCCOC4)c3C2)c1C(F)(F)F` (centres unmarked) [Example 307, 5-(4-((Tetrahydro-2H-pyran-3-yl)amino)isoindolin-2-yl)-4-(trifluoromethyl)pyridazin-3(2H)-one] gave an IC50 of 0.1 to 1 µM.
`N#Cc1ccc(N2CCN(C(=O)c3cccc(OCCOCC4CCN(c5cn[nH]c(=O)c5C(F)(F)F)C4)c3)CC2)nc1` (centres unmarked) [Example 467, 6-(4-(3-(2-((1-(6-Oxo-5-(trifluoromethyl)-1,6-dihydropyridazin-4-yl)pyrrolidin-3-yl)methoxy)ethoxy)benzoyl)piperazin-1-yl)nicotinonitrile] was tested, and the IC50 was < 0.1 µM.
In the case of `C[C@@H](COCCC(=O)N1CC[C@@H]2[C@H]1CCN2c1ncc(C(F)(F)F)cn1)Nc1cn[nH]c(=O)c1C(F)(F)F` [Example 688, 5-(((S)-1-(3-Oxo-3-((3aR,6aR)-4-(5-(trifluoromethyl)pyrimidin-2-yl)hexahydropyrrolo[3,2-b]pyrrol-1(2H)-yl)propoxy)propan-2-yl)amino)-4-(trifluoromethyl)pyridazin-3(2H)-one], the IC50 is reported as < 0.1 µM.
For `CC(=O)NCCOc1cccc2c1CN(c1cn[nH]c(=O)c1C(F)(F)F)C2` [Example 211, N-(2-((2-(6-Oxo-5-(trifluoromethyl)-1,6-dihydropyridazin-4-yl)isoindolin-4-yl)oxy)ethyl)acetamide], the IC50 was < 0.1 µM.
With `N#Cc1ccc(N2CCN(C(=O)c3ccc(Oc4cccc5c4CN(c4cn[nH]c(=O)c4C(F)(F)F)C5)cc3)CC2)nc1` [Example 494, 6-(4-(4-((2-(6-Oxo-5-(trifluoromethyl)-1,6-dihydropyridazin-4-yl)isoindolin-4-yl)oxy)benzoyl)pipoerazin-1-yl)nicotinonitrile] the IC50 was < 0.1 µM.
`O=c1[nH]ncc(N2Cc3ccc(OCCO)nc3C2)c1C(F)(F)F` [Example 312, 5-(2-(2-Hydroxyethoxy)-5,7-dihydro-6H-pyrrolo[3,4-b]pyridin-6-yl)-4-(trifluoromethyl)pyridazin-3(2H)-one] was tested, and the IC50 was 0.1 to 1 µM.
With `CC(=O)N1CCC(Oc2cnc3c(c2)CN(c2cn[nH]c(=O)c2C(F)(F)F)C3)CC1` [Example 8, 5-[3-[(1-acetylpiperidin-4-yl)oxy]-5H,6H,7H-pyrrolo[3,4-b]pyridin-6-yl]-4-(trifluoro-methyl)-2,3-dihydropyridazin-3-one] the IC50 was 0.1 to 1 µM.
In the case of `CC(=O)N1CCC(Oc2ccc(F)c3c2CN(c2cn[nH]c(=O)c2C(F)(F)F)C3)CC1` [Example 2, 5-[4-[(1-acetylpiperidin-4-yl)oxy]-7-fluoro-2,3-dihydro-1H-isoindol-2-yl]-4-(trifluoromethyl)-2,3-dihydropyridazin-3-one], the IC50 is reported as < 0.1 µM.
In the case of `O=c1[nH]ncc(N2Cc3c(F)ccc(OCCN4CCOCC4)c3C2)c1C(F)(F)F` [Example 286, 5-(4-Fluoro-7-(2-morpholinoethoxy)isoindolin-2-yl)-4-(trifluoromethyl)pyridazin-3(2H)-one], the IC50 is reported as < 0.1 µM.
For `N#Cc1ccc(N2CCN(C(=O)c3cccc(NCC4c5ccccc5CN4c4cn[nH]c(=O)c4C(F)(F)F)c3)CC2)nc1` (centres unmarked) [Example 348, 6-(4-(3-(((2-(6-Oxo-5-(trifluoromethyl)-1,6-dihydropyridazin-4-yl)isoindolin-1-yl)methyl)amino)benzoyl)piperazin-1-yl)nicotinonitrile], the IC50 was < 0.1 µM.
With `Cc1ccc(N2CCN(C(=O)c3cccc(OCC4c5ccccc5CN4c4cn[nH]c(=O)c4C(F)(F)F)c3)CC2)nc1` (centres unmarked) [Example 403, 5-(1-((3-(4-(5-Methylpyridin-2-yl)piperazine-1-carbonyl)phenoxy)methyl)isoindolin-2-yl)-4-(trifluoromethyl)pyridazin-3(2H)-one] the IC50 was < 0.1 µM.
For `O=c1[nH]ncc(N2Cc3ccccc3[C@H]2CO)c1C(F)(F)F` [Example 247, (S)-5-(1-(Hydroxymethyl)isoindolin-2-yl)-4-(trifluoromethyl)pyridazin-3(2H)-one], the IC50 was ≥ 1 µM.
`O=C(c1cncc(OC[C@@H]2c3ccccc3CN2c2cn[nH]c(=O)c2C(F)(F)F)c1)N1CCN(c2ccc(C(F)(F)F)cn2)CC1` [Example 384, (S)-4-(Trifluoromethyl)-5-(1-(((5-(4-(5-(trifluoromethyl)pyridin-2-yl)piperazine-1-carbonyl)pyridin-3-yl)oxy)methyl)isoindolin-2-yl)pyridazin-3(2H)-one] was tested, and the IC50 was < 0.1 µM.
In the case of `O=c1[nH]ncc(N2Cc3cccc(N4CCC(O)C4)c3C2)c1C(F)(F)F` (centres unmarked) [Example 305, 5-(4-(3-Hydroxypyrrolidin-1-yl)isoindolin-2-yl)-4-(trifluoromethyl)pyridazin-3(2H)-one 2,2,2-trifluoroacetic acid], the IC50 is reported as < 0.1 µM.
With `C[C@@H](COCCC(=O)N1CCN(c2ncc(C(F)(F)F)cn2)CC1)Oc1cn[nH]c(=O)c1Br` [Example 608, 4-Bromo-5-[[(2S)-1-(3-oxo-3-[4-[5-(trifluoromethyl)pyrimidin-2-yl]piperazin-1-yl]propoxy)propan-2-yl]oxy]-2,3-dihydropyridazin-3-one] the IC50 was < 0.1 µM.
`Cc1c(N2Cc3ccc(OC4CCNCC4)cc3C2)cn[nH]c1=O` [Example 187, 4-Methyl-5-(5-(piperidin-4-yloxy)isoindolin-2-yl)pyridazin-3(2H)-one] was tested, and the IC50 was ≥ 1 µM.
Work on `N#Cc1ccc(N2CCN(C(=O)CNCCCOc3cn[nH]c(=O)c3C(F)(F)F)CC2)nc1` [Example 524] yielded an IC50 of 0.1 to 1 µM.
In the case of `CC(C)(COC[C@@H]1CCCN1c1cn[nH]c(=O)c1C(F)(F)F)CC(=O)N1CCN(c2ccc(C#N)cn2)CC1` [Example 118, 6-[4-(3,3-dimethyl-4-[[(2S)-1-[6-oxo-5-(trifluoromethyl)-1,6-dihydropyridazin-4-yl]pyrrolidin-2-yl]methoxy]butanoyl)piperazin-1-yl]pyridine-3-carbonitrile], the IC50 is reported as < 0.1 µM.
With `O=C(C[C@@H]1CC[C@@H](COc2cn[nH]c(=O)c2Cl)O1)N1CCN(c2ncc(C(F)(F)F)cn2)CC1` (single isomer, unassigned) [Example 575 Isomer A] the IC50 was ≥ 1 µM.
In the case of `N#Cc1ccc(N2CCN(C(=O)c3cccc(OCC4CCCCN4c4cn[nH]c(=O)c4C(F)(F)F)c3)CC2)nc1` (centres unmarked) [Example 40, 6-(4-[[3-([1-[6-oxo-5-(trifluoromethyl)-1,6-dihydropyridazin-4-yl]piperidin-2-yl]methoxy)phenyl]carbonyl]piperazin-1-yl)pyridine-3-carbonitrile], the IC50 is reported as 0.1 to 1 µM.
`CN(C)C1CCN(c2cccc3c2CN(c2cn[nH]c(=O)c2C(F)(F)F)C3)C1` (centres unmarked) [Example 285, 5-(4-(3-(Dimethylamino)pyrrolidin-1-yl)isoindolin-2-yl)-4-(trifluoromethyl)pyridazin-3(2H)-one] was tested, and the IC50 was < 0.1 µM.
For `COC[C@H](COCCC(=O)N1CCN(c2cnc(Cl)cn2)CC1)Oc1cn[nH]c(=O)c1C(F)(F)F` [Example 697, (R)-5-((1-(3-(4-(5-Chloropyrazin-2-yl)piperazin-1-yl)-3-oxopropoxy)-3-methoxypropan-2-yl)oxy)-4-(trifluoromethyl)pyridazin-3(2H)-one], the IC50 was 0.1 to 1 µM.
In the case of `CN(CC1CCCO1)c1cccc2c1CN(c1cn[nH]c(=O)c1C(F)(F)F)C2` (centres unmarked) [Example 270, 5-(4-(Methyl((tetrahydrofuran-2-yl)methyl)amino)isoindolin-2-yl)-4-(trifluoromethyl)pyridazin-3(2H)-one], the IC50 is reported as < 0.1 µM.
For `C[C@@H](COCCC(=O)N1CCN(c2ncc(C(F)(F)F)cn2)CC1)Nc1cn[nH]c(=O)c1Cl` [Example 599, (S)-4-Chloro-5-(1-(3-oxo-3-(4-(5-(trifluoromethyl)pyrimidin-2-yl)piperazin-1-yl)propoxy)propan-2-ylamino)pyridazin-3(2H)-one], the IC50 was < 0.1 µM.
`C[C@@H](COc1cn[nH]c(=O)c1Cl)OCCC(=O)N1CCN(c2ncc(C(F)(F)F)cn2)CC1` [Example 578 Isomer B, (S)-4-Chloro-5-(2-(3-oxo-3-(4-(5-(trifluoromethyl)pyrimidin-2-yl)piperazin-1-yl)propoxy)propoxy)pyridazin-3(2H)-one] was tested, and the IC50 was < 0.1 µM.
